Among the test systems are HCT-116; M14; SK-MEL-28; SK-MEL-2; MOLT-4; CAKI-1; SR; A549; DU-145; OVCAR-8; HL-60; EKVX; 786-0; HCC 2998; SK-MEL-5; UACC-62; MDA-MB-435; RPMI-8226; NCI-H226.
Common to all, as to test: NCI anticancer screen, dose series, 48 h

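Briefly, cells in 96-well plates were exposed to five compound concentrations for 48 h, and endpoints were estimated by linear interpolation. GI50: concentration for 50% inhibition of growth.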 Calls of active or inactive are those of the source. No stated cut-off is given here; in the data, active = GI50 up to about 1.1 µM and inactive = higher.

Regarding `CCN(C)c1nc(N(C)CC)c2nc(N(C)CC)nc(N(C)CC)c2n1`, the GI50 with HCT-116, in the test with M14, in the test with SK-MEL-28, in the test on SK-MEL-2, in the test on MOLT-4 and with CAKI-1 was > 100 µM (inactive) each time. For the same molecule, the GI50 is 26.5 µM (inactive) in the test on SR; > 100 µM (inactive) in the test with A549; > 100 µM (inactive) with DU-145; > 100 µM (inactive) with OVCAR-8; > 100 µM (inactive) in the test with HL-60; > 100 µM (inactive) in the test on EKVX. The GI50 in the test on 786-0, in the test on HCC 2998, in the test with SK-MEL-5, with UACC-62, with MDA-MB-435 and in the test on RPMI-8226 was > 100 µM (inactive) in each case.

In the case of `O=C1CC(c2ccccc2Cl)C2(C(=O)NC(=S)NC2=O)C(c2ccccc2Cl)C1` (configuration not stated), the GI50 is 20 µM (inactive) in the test on HCT-116; 17.1 µM (inactive) with M14; 49 µM (inactive) in the test on SK-MEL-28; 37.1 µM (inactive) in the test with SK-MEL-2; 54.7 µM (inactive) with MOLT-4; 44 µM (inactive) in the test with SR. Moreover, the GI50 is 28.6 µM (inactive) with NCI-H226; 20.8 µM (inactive) in the test on A549; 34 µM (inactive) with DU-145; 23 µM (inactive) with OVCAR-8; 36.5 µM (inactive) in the test on HL-60; 37.6 µM (inactive) in the test on EKVX. Besides, the GI50 in the test with 786-0 is 21.5 µM (inactive); in the test on HCC 2998 it was 27 µM (inactive); with SK-MEL-5, 23.9 µM (inactive); in the test with UACC-62, 19.8 µM (inactive); with MDA-MB-435, 14.3 µM (inactive); with RPMI-8226 it was 34.1 µM (inactive).

Regarding `COc1ccc(OC)c2sc(N3C(=O)/C(=C/Cc4ccco4)N=C3c3ccccc3)nc12`, the GI50 was 27.3 µM (inactive) with HCT-116; 37.6 µM (inactive) in the test with M14; 79.1 µM (inactive) in the test on SK-MEL-28; 24.1 µM (inactive) in the test with SK-MEL-2; 17.9 µM (inactive) with MOLT-4; 81.1 µM (inactive) with CAKI-1. Besides, the GI50 in the test on SR is 19.4 µM (inactive); with A549, 34.7 µM (inactive); with DU-145, 32.4 µM (inactive); with OVCAR-8, 33.5 µM (inactive); in the test on HL-60, 18.1 µM (inactive); in the test with EKVX it was 66.8 µM (inactive). The GI50 in the test with 786-0 is 35.5 µM (inactive); in the test with HCC 2998 it was > 100 µM (inactive); in the test on SK-MEL-5, 21.2 µM (inactive); in the test on UACC-62, 21.8 µM (inactive); in the test with MDA-MB-435, 19.4 µM (inactive); in the test on RPMI-8226, 15.5 µM (inactive).

On to `Cc1cccc2nc(-c3ccccc3)cc(=O)n12`, for which the GI50 is > 100 µM (inactive) with HCT-116; > 100 µM (inactive) in the test with M14; > 100 µM (inactive) in the test on SK-MEL-28; 63.5 µM (inactive) in the test with MOLT-4; 87.5 µM (inactive) in the test with SR; 30.1 µM (inactive) in the test with NCI-H226. The GI50 with A549 was > 100 µM (inactive); in the test on DU-145, > 100 µM (inactive); with OVCAR-8, 88.3 µM (inactive); with HL-60 it was > 100 µM (inactive); with EKVX, 7.26 µM (inactive); in the test on 786-0, > 100 µM (inactive). The GI50 was > 100 µM (inactive) in the test on HCC 2998; 38.2 µM (inactive) with SK-MEL-5; 44.1 µM (inactive) with UACC-62; > 10 µM (inactive) in the test on MDA-MB-435; > 100 µM (inactive) in the test with RPMI-8226.

Consider `CN1CCN(C(=S)N(C(=O)c2ccco2)C2CCCCC2)CC1`, for which the GI50 with M14 was > 100 µM (inactive); in the test on SK-MEL-28, > 100 µM (inactive); in the test on SK-MEL-2 it was > 100 µM (inactive); with MOLT-4 it was > 10 µM (inactive); in the test with SR, > 100 µM (inactive); in the test on NCI-H226 it was > 100 µM (inactive). Besides, the GI50 is > 100 µM (inactive) in the test with A549; > 100 µM (inactive) with DU-145; > 100 µM (inactive) in the test on OVCAR-8; > 10 µM (inactive) in the test with HL-60; > 100 µM (inactive) in the test on 786-0; > 100 µM (inactive) in the test on HCC 2998. The GI50 in the test with SK-MEL-5, with UACC-62, with MDA-MB-435 and with RPMI-8226 was > 100 µM (inactive) throughout.

With `COc1cc(C2c3cc4c(cc3OC(C)(O)C2C)OCO4)cc(OC)c1OC` (configuration not stated), the GI50 in the test with HCT-116 is 0.333 µM (active); with MOLT-4 it was 0.513 µM (active); with CAKI-1 it was 12.2 µM (inactive); with SR it was 0.379 µM (active); in the test with NCI-H226, 1.31 µM (inactive); in the test on A549, 0.197 µM (active). Further, the GI50 is 0.456 µM (active) in the test with DU-145; 0.217 µM (active) in the test on OVCAR-8; 0.182 µM (active) with HL-60; 28.6 µM (inactive) in the test on EKVX; 0.708 µM (active) with 786-0; 0.646 µM (active) in the test on HCC 2998. In addition, the GI50 with SK-MEL-5 is 0.154 µM (active); in the test on MDA-MB-435, 0.118 µM (active); with RPMI-8226, 0.237 µM (active).

`Cc1ccc(C2=CC(=O)/C(=C\C(=O)c3ccc(Cl)cc3)O2)cc1`: the GI50 is 14.3 µM (inactive) in the test on HCT-116; 18.3 µM (inactive) with M14; 16.9 µM (inactive) in the test on SK-MEL-28; 3.94 µM (inactive) in the test with MOLT-4; 2.3 µM (inactive) with CAKI-1; 1.42 µM (inactive) with SR. In addition, the GI50 in the test with NCI-H226 is 17.2 µM (inactive); in the test on DU-145, 32.6 µM (inactive); with OVCAR-8 it was 3.13 µM (inactive); in the test with HL-60, 0.902 µM (active); in the test with EKVX it was 70 µM (inactive); with 786-0, 9.95 µM (inactive). Also, the GI50 in the test with HCC 2998 was 27.4 µM (inactive); in the test with SK-MEL-5, 14.5 µM (inactive); with UACC-62 it was 11.6 µM (inactive); with MDA-MB-435 it was 18 µM (inactive); in the test on RPMI-8226, 2.08 µM (inactive).

On to `O=c1oc2cc(O)ccc2cc1-c1nc2ccccc2s1`, for which the GI50 in the test with HCT-116 was 21.8 µM (inactive); in the test with M14, 24.5 µM (inactive); in the test with SK-MEL-28, 0.0656 µM (active); in the test on SK-MEL-2, 21.8 µM (inactive); with MOLT-4 it was 0.678 µM (active); with CAKI-1, 22.9 µM (inactive). The GI50 in the test with SR is 25.8 µM (inactive); with A549 it was 19.1 µM (inactive); with DU-145 it was 29.2 µM (inactive); in the test with OVCAR-8, 34.7 µM (inactive); with HL-60, 16.1 µM (inactive); in the test with EKVX it was 27.2 µM (inactive). In addition, the GI50 with 786-0 was 22.8 µM (inactive); in the test with HCC 2998, 27.5 µM (inactive); in the test on SK-MEL-5, 11.1 µM (inactive); in the test with UACC-62, 7.21 µM (inactive); in the test with MDA-MB-435, 27.3 µM (inactive); with RPMI-8226, 11.5 µM (inactive).

(Values after ChEMBL document CHEMBL1201862, “PubChem BioAssay data set” (2004).)
